# Source: PMC12797171, “Preclinical Evaluation of a ^177Lu-Labeled Gastrin-Releasing Peptide Receptor Antagonist and Prostate Cancer Treatment with Monotherapy and in Combination with Everolimus” (ACS Pharmacology & Translational Science, 2025)
# Values joined by “and” are separate entries in the source; they are usually repeats but may differ in a detail not shown here. Identical values can stand only once.
# How the values were obtained:
# [1] = Morphological assessment / tolerability (H&E of kidney, pancreas, tumor)
# Protocol: Selected mouse organs (kidney, pancreas and tumor) were dissected from the sacrificed animals and immediately frozen using liquid nitrogen. Frozen tissue samples were sectioned of 7 μm thickness using a cryostat maintained at – 20 °C to – 25 °C and mounted onto microscope glass slides followed by staining with hematoxylin and eosin for microscopic examination using standard protocols (details in Supporting Information).
# Frozen tissue samples (kidney, pancreas and tumor) were sectioned at 7 µm thickness using a cryostat
# maintained at −20°C to −25°C and mounted onto microscope glass slides. Sections were air-dried at
# room temperature for 15 minutes and subsequently fixed in 4% paraformaldehyde for 10 minutes. After
# rinsing in phosphate-buffered saline, slides were stained with hematoxylin for 5 minutes, rinsed in
# running tap water and differentiated in 1% acid alcohol followed by bluing in ammonia water. Sections
# were then counterstained with eosin for 1 minute and briefly washed in 70% ethanol to remove excess
# stain. Slides were dehydrated through graded ethanol (70%, 95%, 100%) and mounted with a permanent
# mounting medium. Stained sections were examined using a light microscope.
# PC-3 tumors = test: In vivo combination therapy with everolimus in PC-3 tumor bearing mice; parameters: species or system mouse; conditions: for Tumor volume, average: 5mg/kg (x3)
# Excerpt: Treatment began once tumors reached the same size threshold used in the monotherapy studies. Animals were divided into three groups (n = 4–5 per group) and received one of the following regimens: • 1.
# Monitoring procedures matched those used in the monotherapy experiments.
# The procedure is detailed in the supplementary material.
# initiation of therapy in the combination treatment studies. Three groups of 5 mice per group were
# Both monotherapy and combination
compound,measurement,setting,value
"CO[C@H]1C[C@@H]2CC[C@@H](C)[C@@](O)(O2)C(=O)C(=O)N2CCCC[C@H]2C(=O)O[C@H]([C@H](C)C[C@@H]2CC[C@@H](OCCO)[C@H](OC)C2)CC(=O)[C@H](C)/C=C(\C)[C@@H](O)[C@@H](OC)C(=O)[C@H](C)C[C@H](C)/C=C/C=C/C=C/1C [Everolimus, everolimus]","Pancreas, microscopic tissue examination",[1]; 5mg/kg (x3),No obvious lesions
same,tolerability,"[1]; three doses, physical condition and weight",no observable side effects
same,Median survival,PC-3 tumors; 5 mg/kg/day for 3 days i.p.,27.5 days and ~27 days
same,"Tumor volume, average",PC-3 tumors; day 0,100.06 mm3
same,"Tumor volume, average",PC-3 tumors; day 2,108.59 mm3
same,"Tumor volume, average",PC-3 tumors; day 4,107.95 mm3
same,"Tumor volume, average",PC-3 tumors; day 6,97.61 mm3
same,"Tumor volume, average",PC-3 tumors; day 8,97.18 mm3
same,"Tumor volume, average",PC-3 tumors; day 10,104.48 mm3
same,"Tumor volume, average",PC-3 tumors; day 12,131.10 mm3
same,"Tumor volume, average",PC-3 tumors; day 14,181.07 mm3
same,"Tumor volume, average",PC-3 tumors; day 16,193.30 mm3
same,"Tumor volume, average",PC-3 tumors; day 18,241.75 mm3
same,"Tumor volume, average",PC-3 tumors; day 20,376.61 mm3
same,"Tumor volume, average",PC-3 tumors; day 22,630.33 mm3
same,"Tumor volume, average",PC-3 tumors; day 24,524.51 mm3
same,"Tumor volume, average",PC-3 tumors; day 27,794.32 mm3
same,"Tumor volume, average",PC-3 tumors; day 29,970.40 mm3
same,effect on tumor growth,"PC-3 tumors; everolimus alone, 5 mg/kg/day for 3 days",moderately delayed tumor growth but did not stop it
